Assay results published in ChEMBL document CHEMBL4270485, “Determination of Gymnemic Acid I as a Protein Biosynthesis Inhibitor Using Chemical Proteomics” (J Nat Prod, 2017).
Active and inactive are the calls of the source. The calls are words filed in the database; no cut-off is given here.

What was measured:
[1] = biological target: Endoplasmic reticulum chaperone BiP (Homo sapiens) (UniProt P11021); test: Binding affinity to 78 kDa glucose-regulated protein in human Hela cells lysates assessed as protein enrichment by measuring normalized heavy/light ratio at by nano-LC-ESIMS/MS analysis; format: cell-free
Chain of Endoplasmic reticulum chaperone BiP (Homo sapiens) (P11021 whole entry): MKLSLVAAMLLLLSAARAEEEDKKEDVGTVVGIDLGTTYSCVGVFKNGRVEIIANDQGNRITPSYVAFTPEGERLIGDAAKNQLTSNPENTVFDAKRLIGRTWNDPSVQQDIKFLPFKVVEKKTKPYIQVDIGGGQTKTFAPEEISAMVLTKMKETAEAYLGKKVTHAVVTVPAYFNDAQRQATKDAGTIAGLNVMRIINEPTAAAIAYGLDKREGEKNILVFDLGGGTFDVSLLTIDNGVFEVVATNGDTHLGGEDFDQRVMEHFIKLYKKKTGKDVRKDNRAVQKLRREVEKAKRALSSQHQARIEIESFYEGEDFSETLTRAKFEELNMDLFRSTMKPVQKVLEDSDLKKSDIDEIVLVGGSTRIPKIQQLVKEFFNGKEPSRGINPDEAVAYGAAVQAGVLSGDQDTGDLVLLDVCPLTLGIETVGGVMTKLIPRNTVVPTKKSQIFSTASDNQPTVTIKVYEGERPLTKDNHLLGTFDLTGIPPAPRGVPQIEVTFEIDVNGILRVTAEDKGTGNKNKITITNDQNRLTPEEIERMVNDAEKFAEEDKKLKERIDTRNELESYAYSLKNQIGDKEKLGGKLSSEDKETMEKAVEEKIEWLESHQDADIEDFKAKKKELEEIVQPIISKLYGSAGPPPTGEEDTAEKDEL

[2] = biological target: T1, 80S Ribosome (Homo sapiens) (UniProt P08865+P42677+P62753+P15880+P23396+P61247+P62701+P22090+P46782+P62081+P62241+P46781+P46783+P62280+P25398+P62277+P62263+P62841+P62244+P62249+P08708+P62269+P39019+P60866+P63220+P62266+P62847+P62851+P62854+P62979+P62857+P62273+P62861+P39023+P36578+P46777+Q02878+P18124+P62424+P62917+P32969+P27635+P62906+P62913+P30050+P26373+P40429+P50914+P61313+P18621+Q07020+Q02543+P84098+P46778+P35268+P62829+P62750+P83731+P61254+P61353+P46776+P46779+P47914+P62888+P62899+P62910+P49207+P42766+P18077+Q9Y3U8+P83881+P61927+P61513+P63173+P62891+P62945+P05388+P05386); test: Binding affinity to 60S ribosomal protein L31 in human Hela cells lysates assessed as protein enrichment by measuring normalized heavy/light ratio at by nano-LC-ESIMS/MS analysis; format: cell-free
[3] = system: HeLa; test: Inhibition of protein synthesis in human HeLa cells at 50 to 500 uM pre-incubated for 1 hr before L-[35S]-cysteine and L-[35S]-methionine addition and measured after 1 hr by Comassie staining based autoradiography; format: functional, cell-based
[4] = biological target: T1, 80S Ribosome (Homo sapiens); test: Binding affinity to 40S ribosomal protein S24 in human Hela cells lysates assessed as protein enrichment by measuring normalized heavy/light ratio at by nano-LC-ESIMS/MS analysis; format: cell-free
[5] = biological target: Peptidyl-prolyl cis-trans isomerase A (Homo sapiens) (UniProt P62937); test: Binding affinity to peptidyl-prolylcis-trans isomerase in human Hela cells lysates assessed as protein enrichment by measuring normalized heavy/light ratio at by nano-LC-ESIMS/MS analysis; format: cell-free
Chain of Peptidyl-prolyl cis-trans isomerase A (Homo sapiens) (P62937 whole entry, looked up): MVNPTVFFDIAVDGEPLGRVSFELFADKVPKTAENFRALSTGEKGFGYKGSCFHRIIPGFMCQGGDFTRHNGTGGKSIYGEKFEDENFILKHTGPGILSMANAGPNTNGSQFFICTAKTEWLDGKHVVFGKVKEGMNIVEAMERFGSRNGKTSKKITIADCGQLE

[6] = biological target: Heat shock protein HSP 90-beta (Homo sapiens) (UniProt P08238); test: Binding affinity to heat shock protein 90-beta in human Hela cells lysates assessed as protein enrichment by measuring normalized heavy/light ratio at by nano-LC-ESIMS/MS analysis; format: cell-free
Chain of Heat shock protein HSP 90-beta (Homo sapiens) (P08238 whole entry): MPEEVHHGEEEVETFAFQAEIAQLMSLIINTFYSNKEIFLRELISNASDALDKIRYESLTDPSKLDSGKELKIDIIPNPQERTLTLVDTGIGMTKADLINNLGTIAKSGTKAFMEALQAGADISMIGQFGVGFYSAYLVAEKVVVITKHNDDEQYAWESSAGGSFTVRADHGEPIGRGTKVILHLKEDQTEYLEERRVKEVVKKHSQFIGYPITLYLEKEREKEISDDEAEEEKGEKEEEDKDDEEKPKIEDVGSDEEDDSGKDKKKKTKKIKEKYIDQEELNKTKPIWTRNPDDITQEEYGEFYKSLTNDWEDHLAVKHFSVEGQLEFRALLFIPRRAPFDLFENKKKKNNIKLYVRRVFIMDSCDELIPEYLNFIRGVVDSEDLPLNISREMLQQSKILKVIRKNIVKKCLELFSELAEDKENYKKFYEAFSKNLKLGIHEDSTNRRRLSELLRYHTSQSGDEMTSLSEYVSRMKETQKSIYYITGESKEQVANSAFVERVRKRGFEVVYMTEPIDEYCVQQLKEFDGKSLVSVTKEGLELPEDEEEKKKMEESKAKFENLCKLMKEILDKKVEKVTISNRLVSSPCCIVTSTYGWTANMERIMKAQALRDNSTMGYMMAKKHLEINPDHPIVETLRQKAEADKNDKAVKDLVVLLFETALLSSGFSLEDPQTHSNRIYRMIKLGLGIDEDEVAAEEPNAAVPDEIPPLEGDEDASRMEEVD

[7] = biological target: L-lactate dehydrogenase A chain (Homo sapiens) (UniProt P00338); test: Binding affinity to L-lactate dehydrogenase A chain in human Hela cells lysates assessed as protein enrichment by measuring normalized heavy/light ratio at by nano-LC-ESIMS/MS analysis; format: cell-free
[8] = biological target: T1, 80S Ribosome (Homo sapiens); test: Binding affinity to ribosomal protein S3 in human Hela cells lysates assessed as protein enrichment by Western blotting analysis; format: cell-free
[9] = biological target: Tubulin alpha-1B chain (Homo sapiens) (UniProt P68363); test: Binding affinity to tubulin alpha-1B chain in human Hela cells lysates assessed as protein enrichment by measuring normalized heavy/light ratio at by nano-LC-ESIMS/MS analysis; format: cell-free
Chain of Tubulin alpha-1B chain (Homo sapiens) (P68363 whole entry, looked up): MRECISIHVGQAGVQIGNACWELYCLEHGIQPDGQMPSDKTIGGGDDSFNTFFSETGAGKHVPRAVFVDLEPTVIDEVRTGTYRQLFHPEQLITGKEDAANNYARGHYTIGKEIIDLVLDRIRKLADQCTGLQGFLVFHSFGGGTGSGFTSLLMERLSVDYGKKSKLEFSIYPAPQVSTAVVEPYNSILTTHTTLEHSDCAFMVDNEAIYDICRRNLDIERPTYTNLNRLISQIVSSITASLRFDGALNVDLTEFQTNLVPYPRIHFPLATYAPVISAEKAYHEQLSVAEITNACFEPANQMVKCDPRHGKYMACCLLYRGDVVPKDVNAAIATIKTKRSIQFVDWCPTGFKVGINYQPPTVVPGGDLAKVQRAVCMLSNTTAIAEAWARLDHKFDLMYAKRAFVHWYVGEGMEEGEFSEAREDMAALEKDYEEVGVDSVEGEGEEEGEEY

[10] = biological target: Elongation factor 1-gamma (Homo sapiens) (UniProt P26641); test: Binding affinity to elongation factor 1-gamma in human Hela cells lysates assessed as protein enrichment by measuring normalized heavy/light ratio at by nano-LC-ESIMS/MS analysis; format: cell-free
Chain of Elongation factor 1-gamma (Homo sapiens) (P26641 whole entry): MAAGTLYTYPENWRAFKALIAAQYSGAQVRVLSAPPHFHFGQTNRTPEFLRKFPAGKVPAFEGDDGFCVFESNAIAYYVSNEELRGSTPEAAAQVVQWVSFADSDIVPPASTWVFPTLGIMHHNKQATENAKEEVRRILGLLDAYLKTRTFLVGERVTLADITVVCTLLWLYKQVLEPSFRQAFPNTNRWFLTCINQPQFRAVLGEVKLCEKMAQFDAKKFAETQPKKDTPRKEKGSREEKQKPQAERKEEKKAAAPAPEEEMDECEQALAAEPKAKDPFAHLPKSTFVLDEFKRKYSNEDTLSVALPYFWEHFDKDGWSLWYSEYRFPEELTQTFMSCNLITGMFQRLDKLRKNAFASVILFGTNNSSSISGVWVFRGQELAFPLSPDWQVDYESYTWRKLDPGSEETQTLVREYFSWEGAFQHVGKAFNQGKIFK

[11] = biological target: T1, 80S Ribosome (Homo sapiens); test: Binding affinity to 60S ribosomal protein L13 in human Hela cells lysates assessed as protein enrichment by measuring normalized heavy/light ratio at by nano-LC-ESIMS/MS analysis; format: cell-free
[12] = biological target: T1, 80S Ribosome (Homo sapiens); test: Binding affinity to 40S ribosomal protein S5 in human Hela cells lysates assessed as protein enrichment by measuring normalized heavy/light ratio at by nano-LC-ESIMS/MS analysis; format: cell-free
[13] = Drug internalization in human HeLa cells at 1 uM by RP-HPLC-MS analysis; format: ADME, cell-based
[14] = biological target: Elongation factor 1-beta (Homo sapiens) (UniProt P24534); test: Binding affinity to elongation factor 1-beta in human Hela cells lysates assessed as protein enrichment by measuring normalized heavy/light ratio at by nano-LC-ESIMS/MS analysis; format: cell-free
Chain of Elongation factor 1-beta (Homo sapiens) (P24534 whole entry): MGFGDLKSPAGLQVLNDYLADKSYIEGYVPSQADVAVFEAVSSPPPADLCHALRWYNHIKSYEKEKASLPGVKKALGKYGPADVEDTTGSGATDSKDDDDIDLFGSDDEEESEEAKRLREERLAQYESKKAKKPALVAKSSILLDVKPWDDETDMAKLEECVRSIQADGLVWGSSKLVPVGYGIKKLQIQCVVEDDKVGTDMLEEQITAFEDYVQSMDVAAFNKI

[15] = biological target: T1, 80S Ribosome (Homo sapiens); test: Binding affinity to 60S ribosomal protein L15 in human Hela cells lysates assessed as protein enrichment by measuring normalized heavy/light ratio at by nano-LC-ESIMS/MS analysis; format: cell-free
[16] = biological target: Phosphoglycerate kinase 1 (Homo sapiens) (UniProt P00558); test: Binding affinity to phosphoglycerate kinase 1 in human Hela cells lysates assessed as protein enrichment by measuring normalized heavy/light ratio at by nano-LC-ESIMS/MS analysis; format: cell-free
Chain of Phosphoglycerate kinase 1 (Homo sapiens) (P00558 whole entry): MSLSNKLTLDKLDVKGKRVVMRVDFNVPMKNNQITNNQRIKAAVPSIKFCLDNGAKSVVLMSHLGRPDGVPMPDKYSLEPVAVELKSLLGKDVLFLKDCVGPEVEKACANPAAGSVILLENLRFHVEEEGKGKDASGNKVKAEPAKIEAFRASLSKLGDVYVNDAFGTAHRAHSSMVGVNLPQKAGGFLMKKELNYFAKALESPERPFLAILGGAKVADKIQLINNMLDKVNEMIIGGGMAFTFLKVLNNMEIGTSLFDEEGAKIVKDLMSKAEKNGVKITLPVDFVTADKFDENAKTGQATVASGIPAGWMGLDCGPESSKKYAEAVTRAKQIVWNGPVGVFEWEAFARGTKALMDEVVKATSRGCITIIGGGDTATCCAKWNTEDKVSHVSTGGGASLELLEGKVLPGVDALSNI

[17] = biological target: Small ribosomal subunit protein eS27 (Homo sapiens) (UniProt P42677); test: Binding affinity to 40S ribosomal protein S27 in human Hela cells lysates assessed as protein enrichment by measuring normalized heavy/light ratio at by nano-LC-ESIMS/MS analysis; format: cell-free
[18] = biological target: T1, 80S Ribosome (Homo sapiens); test: Binding affinity to 40S ribosomal protein S7 in human Hela cells lysates assessed as protein enrichment by measuring normalized heavy/light ratio at by nano-LC-ESIMS/MS analysis; format: cell-free
[19] = biological target: Elongation factor 2 (Homo sapiens) (UniProt P13639); test: Binding affinity to eukaryotic translation initiation factor in human Hela cells lysates assessed as protein enrichment by measuring normalized heavy/light ratio at by nano-LC-ESIMS/MS analysis; format: cell-free
[20] = biological target: T1, 80S Ribosome (Homo sapiens); test: Binding affinity to 60S ribosomal protein L23a in human Hela cells lysates assessed as protein enrichment by measuring normalized heavy/light ratio at by nano-LC-ESIMS/MS analysis; format: cell-free
[21] = biological target: Peroxiredoxin-1 (Homo sapiens) (UniProt Q06830); test: Binding affinity to peroxiredoxin-1 in human Hela cells lysates assessed as protein enrichment by measuring normalized heavy/light ratio at by nano-LC-ESIMS/MS analysis; format: cell-free
Chain of Peroxiredoxin-1 (Homo sapiens) (Q06830 whole entry): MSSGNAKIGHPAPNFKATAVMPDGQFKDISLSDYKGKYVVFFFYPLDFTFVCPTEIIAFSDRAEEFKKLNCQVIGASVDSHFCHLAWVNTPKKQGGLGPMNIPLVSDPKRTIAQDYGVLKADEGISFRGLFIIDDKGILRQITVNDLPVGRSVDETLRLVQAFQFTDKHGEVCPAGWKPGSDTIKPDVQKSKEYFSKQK

[22] = biological target: Stress-70 protein, mitochondrial (Homo sapiens) (UniProt P38646); test: Binding affinity to stress-70 protein in human Hela cells lysates assessed as protein enrichment by measuring normalized heavy/light ratio at by nano-LC-ESIMS/MS analysis; format: cell-free
Chain of Stress-70 protein, mitochondrial (Homo sapiens) (P38646 whole entry): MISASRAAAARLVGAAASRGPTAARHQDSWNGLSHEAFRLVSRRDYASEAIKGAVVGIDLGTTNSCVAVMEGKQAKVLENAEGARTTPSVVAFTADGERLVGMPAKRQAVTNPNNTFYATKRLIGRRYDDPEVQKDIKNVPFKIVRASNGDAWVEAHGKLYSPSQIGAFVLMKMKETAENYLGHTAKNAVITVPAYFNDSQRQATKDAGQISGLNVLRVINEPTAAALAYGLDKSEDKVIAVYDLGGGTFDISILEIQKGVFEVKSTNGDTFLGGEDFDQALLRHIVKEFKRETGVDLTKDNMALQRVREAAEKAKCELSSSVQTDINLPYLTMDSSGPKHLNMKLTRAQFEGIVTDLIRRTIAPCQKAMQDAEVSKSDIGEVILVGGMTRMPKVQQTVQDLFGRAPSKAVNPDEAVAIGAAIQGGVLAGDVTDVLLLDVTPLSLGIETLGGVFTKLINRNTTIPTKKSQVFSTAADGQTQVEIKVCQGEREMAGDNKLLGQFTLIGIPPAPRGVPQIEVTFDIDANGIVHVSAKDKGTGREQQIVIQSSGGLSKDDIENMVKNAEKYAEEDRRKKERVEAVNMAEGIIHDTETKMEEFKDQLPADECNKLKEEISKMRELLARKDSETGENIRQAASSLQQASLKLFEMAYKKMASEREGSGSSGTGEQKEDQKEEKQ

[23] = biological target: T1, 80S Ribosome (Homo sapiens); test: Binding affinity to 60S ribosomal protein L38 in human Hela cells lysates assessed as protein enrichment by measuring normalized heavy/light ratio at by nano-LC-ESIMS/MS analysis; format: cell-free
[24] = biological target: Heat shock cognate 71 kDa protein (Homo sapiens) (UniProt P11142); test: Binding affinity to heat shock cognate 71 kDa protein in human Hela cells lysates assessed as protein enrichment by measuring normalized heavy/light ratio at by nano-LC-ESIMS/MS analysis; format: cell-free
Chain of Heat shock cognate 71 kDa protein (Homo sapiens) (P11142 2-646 limits assumed): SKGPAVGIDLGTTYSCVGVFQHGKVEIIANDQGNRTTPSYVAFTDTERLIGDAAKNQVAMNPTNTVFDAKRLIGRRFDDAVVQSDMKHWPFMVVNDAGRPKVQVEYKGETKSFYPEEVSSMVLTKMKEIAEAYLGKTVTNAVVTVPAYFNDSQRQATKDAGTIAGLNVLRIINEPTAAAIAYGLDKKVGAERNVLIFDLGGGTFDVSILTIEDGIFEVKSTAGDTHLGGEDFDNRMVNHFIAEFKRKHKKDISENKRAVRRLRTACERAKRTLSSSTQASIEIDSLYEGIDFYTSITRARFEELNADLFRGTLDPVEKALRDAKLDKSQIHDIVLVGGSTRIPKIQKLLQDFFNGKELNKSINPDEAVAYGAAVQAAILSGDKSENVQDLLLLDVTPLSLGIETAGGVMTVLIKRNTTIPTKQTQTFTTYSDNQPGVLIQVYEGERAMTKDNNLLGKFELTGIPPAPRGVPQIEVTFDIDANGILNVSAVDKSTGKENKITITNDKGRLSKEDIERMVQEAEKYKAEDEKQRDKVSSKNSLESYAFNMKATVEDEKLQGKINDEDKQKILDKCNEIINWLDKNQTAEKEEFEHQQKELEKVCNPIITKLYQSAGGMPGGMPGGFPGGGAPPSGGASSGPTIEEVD

[25] = biological target: T1, 80S Ribosome (Homo sapiens); test: Binding affinity to 40S ribosomal protein S2 in human Hela cells lysates assessed as protein enrichment by measuring normalized heavy/light ratio at by nano-LC-ESIMS/MS analysis; format: cell-free
[26] = biological target: T1, 80S Ribosome (Homo sapiens); test: Binding affinity to 40S ribosomal protein S3 in human Hela cells lysates assessed as protein enrichment by measuring normalized heavy/light ratio at by nano-LC-ESIMS/MS analysis; format: cell-free
[27] = biological target: T1, 80S Ribosome (Homo sapiens); test: Binding affinity to 60S acidic ribosomal protein P0 in human Hela cells lysates assessed as protein enrichment by measuring normalized heavy/light ratio at by nano-LC-ESIMS/MS analysis; format: cell-free

SMILES: C/C=C(\C)C(=O)O[C@H]1[C@H](O)[C@]2(COC(C)=O)[C@@H](O)C[C@]3(C)C(=CC[C@@H]4[C@@]5(C)CC[C@H](O[C@@H]6O[C@H](C(=O)O)[C@@H](O)[C@H](O)[C@H]6O)[C@@](C)(CO)[C@@H]5CC[C@]43C)[C@@H]2CC1(C)C
- Ratio [1]: 0.527
- Ratio [2]: 0.439
- inhibition [3]: Dose-dependent effect
- Ratio [4]: 0.173
- Ratio [5]: 1.21
- Ratio [6]: 0.737
- Ratio [7]: 0.48
- Activity [8]: Active
- Ratio [9]: 0.523
- Ratio [10]: 0.536
- Ratio [11]: 0.332
- Ratio [12]: 0.255
- Drug uptake [13]: 4%
- Ratio [14]: 0.525
- Ratio [15]: 0.818
- Ratio [16]: 0.665
- Ratio [17]: 0.418
- Ratio [18]: 0.119
- Ratio [19]: 0.795
- Ratio [20]: 0.313
- Ratio [21]: 1.06
- Ratio [22]: 0.751
- Ratio [23]: 0.33
- Ratio [24]: 0.615
- Ratio [25]: 0.114
- Ratio [26]: 0.269
- Ratio [27]: 0.245
